Data as given in publication PMC4300089, “Structure-Guided Design of Selective Epac1 and Epac2 Agonists” (PLoS Biology, 2015).

Biological target: T1, Epac2^Δ280 (Mus musculus, UniProt Q9EQZ6)
T1 construct: made in house
T1 sequence (Q9EQZ6 281-993 isoform Q9EQZ6-3): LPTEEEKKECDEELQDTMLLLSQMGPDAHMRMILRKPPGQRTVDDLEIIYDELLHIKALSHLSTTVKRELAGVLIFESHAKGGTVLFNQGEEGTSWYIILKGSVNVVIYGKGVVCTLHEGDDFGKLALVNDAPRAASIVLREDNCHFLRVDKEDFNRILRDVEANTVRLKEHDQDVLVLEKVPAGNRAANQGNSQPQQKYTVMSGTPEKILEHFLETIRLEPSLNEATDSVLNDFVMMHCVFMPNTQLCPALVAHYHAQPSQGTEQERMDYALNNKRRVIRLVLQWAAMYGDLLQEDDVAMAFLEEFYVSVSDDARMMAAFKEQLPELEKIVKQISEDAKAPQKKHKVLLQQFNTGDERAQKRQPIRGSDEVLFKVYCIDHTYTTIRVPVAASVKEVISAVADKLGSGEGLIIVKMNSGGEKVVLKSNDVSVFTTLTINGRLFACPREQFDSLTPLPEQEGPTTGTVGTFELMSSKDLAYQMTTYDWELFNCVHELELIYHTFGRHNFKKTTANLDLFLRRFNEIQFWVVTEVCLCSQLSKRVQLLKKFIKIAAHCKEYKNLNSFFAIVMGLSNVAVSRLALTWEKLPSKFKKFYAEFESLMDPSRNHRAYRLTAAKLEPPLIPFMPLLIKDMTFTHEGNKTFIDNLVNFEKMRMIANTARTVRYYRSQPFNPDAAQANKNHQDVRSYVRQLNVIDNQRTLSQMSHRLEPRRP
Assay: Epac activation assay (Rap1B•mGDP fluorescence nucleotide exchange), Epac2^Δ280
Format: biochemical
Details: for AC50 / Rel. kmax: Epac2^Δ280; for Rel. kmax: maximal activity relative to cAMP
Procedure: Murine Epac2 was used as all previous structural studies were performed with it.
The activity of Epac was determined by a fluorescence assay. […] The fluorescence intensity of Rap1B•mGDP is approximately twice that of free mGDP, and thus, nucleotide exchange can be observed as a decay in fluorescence upon the addition of excess unlabeled GDP.

Compound	AC50 [µM]	Rel. kmax	activation (Epac2)
Nc1ncnc2c1nc(Sc1ccc(O)cc1)n2[C@@H]1O[C@@H]2CO[P@](O)(=S)O[C@H]2[C@H]1F [S-201, Sp-8-pOHPT-2′-F-cAMPS]	1.6	1.0	
NCCNc1nc2c(N)ncnc2n1[C@@H]1O[C@@H]2COP(=O)(O)O[C@H]2[C@H]1O [L-006, 8-AEA-cAMP]	1.6	0.5	
CCCO[C@@H]1[C@@H]2OP(=O)(O)OC[C@H]2O[C@H]1n1cnc2c(N)ncnc21 [Z-005, 2′-O-Pr-cAMP]	70	0.5	
8-PIA-cAMP [L-019]	19	3.8	
Nc1ncnc2c1nc(OCc1ccccc1)n2[C@@H]1O[C@@H]2CO[P@](O)(=S)O[C@H]2[C@H]1O [S-150, Sp-8-BnO-cAMPS]	1.3	4.8	
Nc1ncnc2c1nc(N1CCOCC1)n2[C@@H]1O[C@@H]2COP(=O)(O)O[C@H]2[C@H]1O [L-020, 8-Morph-cAMP]	18	3.8	
CCNc1nc2c(N)ncnc2n1[C@@H]1O[C@@H]2CO[P@](O)(=S)O[C@H]2[C@H]1O [S-040, Sp-8-EA-cAMPS]	1.9	5.4	
CO[C@@H]1[C@@H]2OP(=O)(O)OC[C@H]2O[C@H]1n1c([Se]Cc2ccccc2)nc2c(N)ncnc21 [D-013, 8-BnSe-2′-O-Me-cAMP]	3.6	2.3	
Nc1ncnc2c1nc(N)n2[C@@H]1O[C@@H]2COP(=O)(O)O[C@H]2[C@H]1O [L-003, 8-NH2-cAMP]	0.2	0.7	
CN(C)c1nc2c(N)ncnc2n1[C@@H]1O[C@@H]2COP(=O)(O)O[C@H]2[C@H]1O [L-015, 8-DMeA-cAMP]	1.4	3.6	
Nc1ncnc2c1nc(Sc1ccc(O)cc1)n2[C@@H]1O[C@@H]2CO[P@](O)(=S)O[C@H]2[C@H]1O [S-200, Sp-8-pOHPT-cAMPS]	0.07	1.2	
COc1nc2c(N)ncnc2n1[C@@H]1O[C@@H]2COP(=O)(O)O[C@H]2[C@H]1O [L-022, 8-MeO-cAMP]	0.6	2.0	
Nc1ncnc2c1nc(SCc1cccc(C(F)(F)F)c1)n2[C@@H]1O[C@@H]2CO[P@](O)(=S)O[C@H]2[C@H]1O [S-300, Sp-8-mTFMeBnT-cAMPS]	0.14	5.0	
CC(C)N(C)c1nc2c(N)ncnc2n1[C@@H]1O[C@@H]2CO[P@](O)(=S)O[C@H]2[C@H]1O [S-100, Sp-8-iPrMeA-cAMPS]	7	4.5	
CCN(CC)c1nc2c(N)ncnc2n1[C@@H]1O[C@@H]2CO[P@](O)(=S)O[C@H]2[C@H]1O [S-090, Sp-8-DEA-cAMPS]	10	4.1	
Nc1ncnc2c1nc([Se]Cc1ccccc1)n2[C@@H]1O[C@@H]2COP(=O)(O)O[C@H]2[C@H]1O [L-028, 8-BnSe-cAMP]	0.03	1.7	
CSc1nc2c(N)ncnc2n1[C@@H]1O[C@@H]2CO[P@](O)(=S)O[C@H]2[C@H]1O [S-160, Sp-8-MeT-cAMPS]	0.3	7.4	
Nc1ncnc2c1nc(N1CCCC1)n2[C@@H]1O[C@@H]2COP(=O)(O)O[C@H]2[C@H]1O [L-017, 8-Pyr-cAMP]	3.9	4.4	
Sp-8-PIA-cAMPS [S-120]	14	2.3	
CSc1nc2c(N)ncnc2n1[C@@H]1O[C@@H]2COP(=O)(O)O[C@H]2[C@H]1O [L-024, 8-MeT-cAMP]	0.14	2.0	
O=P1(O)OC[C@H]2O[C@@H](n3cnc4c(Nc5ccccc5)ncnc43)[C@H](O)[C@@H]2O1 [N-003, N^6-Phe-cAMP]	0.3	0.6	
[N-]=[N+]=Nc1nc2c(N)ncnc2n1[C@@H]1O[C@@H]2COP(=O)(O)O[C@H]2[C@H]1O [L-004, 8-N3-cAMP]	0.2	0.7	
CC(C)Nc1nc2c(N)ncnc2n1[C@@H]1O[C@@H]2CO[P@](O)(=S)O[C@H]2[C@H]1O [S-050, Sp-8-iPrA-cAMPS]	9	1.4	
COc1nc2c(N)ncnc2n1[C@@H]1O[C@@H]2CO[P@](O)(=S)O[C@H]2[C@H]1O [S-140, Sp-8-MeO-cAMPS]	0.7	7.3	
Nc1ncnc2c1nc(SCc1ccc(Cl)cc1)n2[C@@H]1O[C@@H]2CO[P@](O)(=S)O[C@H]2[C@H]1O [S-260, Sp-8-pCBnT-cAMPS]	0.08	4.3	

Compound	AC50 [µM]	Rel. kmax	activation (Epac2)
CCCCO[C@@H]1[C@@H]2OP(=O)(O)OC[C@H]2O[C@H]1n1cnc2c(N)ncnc21 [Z-006, 2′-O-Bu-cAMP]	120	1.0	
Nc1ncnc2c1nc(SCc1ccccc1)n2[C@@H]1O[C@@H]2COP(=O)(O)O[C@H]2[C@H]1F [D-011, 8-BnT-2′-F-cAMP]	2.9	1.6	
NCCCCCCNc1nc2c(N)ncnc2n1[C@@H]1O[C@@H]2COP(=O)(O)O[C@H]2[C@H]1O [L-010, 8-AHA-cAMP]	1.2	1.8	
C=CCO[C@@H]1[C@@H]2OP(=O)(O)OC[C@H]2O[C@H]1n1cnc2c(N)ncnc21 [Z-007, 2′-O-All-cAMP]	70	1.0	
Nc1ncnc2c1ncn2[C@@H]1O[C@@H]2COP(O)(=S)O[C@H]2[C@H]1O (stereo partly drawn) [R-000, Rp-cAMPS]	10	0.2	
Nc1ncnc2c1nc(Cl)n2[C@@H]1O[C@@H]2COP(O)(=S)O[C@@H]2C1O (stereo partly drawn) [S-020, Sp-8-Cl-cAMPS]	0.4	3.8	
Nc1ncnc2c1nc(OCc1ccccc1)n2[C@@H]1O[C@@H]2COP(=O)(O)O[C@H]2[C@H]1O [L-023, 8-BnO-cAMP]	1.3	1.6	
CCN(C)c1nc2c(N)ncnc2n1[C@@H]1O[C@@H]2CO[P@](O)(=S)O[C@H]2[C@H]1O [S-080, Sp-8-EMeA-cAMPS]	1.8	7.6	
CSc1nc2c(N)ncnc2n1[C@@H]1O[C@@H]2CO[P@](O)(=S)O[C@H]2[C@H]1F [S-170, Sp-8-MeT-2′-F-cAMPS]	6.9	2.8	
C[Se]c1nc2c(N)ncnc2n1[C@@H]1O[C@@H]2COP(=O)(O)O[C@H]2[C@H]1O [L-027, 8-MeSe-cAMP]	0.18	1.5	
Sp-8-ADOA-cAMPS [S-060]	6.2	2.1	
CO[C@@H]1[C@@H]2O[P@@](O)(=S)OC[C@H]2O[C@H]1n1c(Sc2ccc(O)cc2)nc2c(N)ncnc21 [S-202, Sp-8-pOHPT-2′-O-Me-cAMPS]	1.6	1.4	
CNc1nc2c(N)ncnc2n1[C@@H]1O[C@@H]2CO[P@](O)(=S)O[C@H]2[C@H]1F [S-032, Sp-8-MeA-2′-F-cAMPS]	9.5	3.9	
Nc1ncnc2c1nc(NCCCCO)n2[C@@H]1O[C@@H]2COP(=O)(O)O[C@H]2[C@H]1O [L-008, 8-OHBuA-cAMP]	2.6	1.6	
CCN(CC)c1nc2c(N)ncnc2n1[C@@H]1O[C@@H]2COP(=O)(O)O[C@H]2[C@H]1O [L-016, 8-DEA-cAMP]	9	5.1	
Nc1ncnc2c1nc(NCCO)n2[C@@H]1O[C@@H]2COP(=O)(O)O[C@H]2[C@H]1O [L-007, 8-OHEA-cAMP]	2.6	1.0	
CO[C@@H]1[C@@H]2O[P@@](O)(=S)OC[C@H]2O[C@H]1n1c(SC)nc2c(N)ncnc21 [S-180, Sp-8-MeT-2′-O-Me-cAMPS]	3.7	3.2	
O=P1(O)OCC2OC(n3cnc4c(NCc5ccccc5)ncnc43)C(O)C2O1 (stereo not drawn) [N-001, N^6-Bn-cAMP]	1.1	0.3	
Nc1ncnc2c1nc(SCc1cccc([N+](=O)[O-])c1)n2[C@@H]1O[C@@H]2CO[P@](O)(=S)O[C@H]2[C@H]1O [S-290, Sp-8-mNBnT-cAMPS]	0.16	4.3	
Nc1ncnc2c1nc(SCc1ccc(F)cc1)n2[C@@H]1O[C@@H]2CO[P@](O)(=S)O[C@H]2[C@H]1O [S-280, Sp-8-pFBnT-cAMPS]	0.11	4.9	
C[C@H](O)CNc1nc2c(N)ncnc2n1[C@@H]1O[C@@H]2COP(=O)(O)O[C@H]2[C@H]1O [L-012, 8-(S-2-OHPrA)-cAMP]	8	0.5	
CNc1nc2c(N)ncnc2n1[C@@H]1O[C@@H]2CO[P@](O)(=S)O[C@H]2[C@H]1OC [S-034, Sp-8-MeA-2′-O-Me-cAMPS]	20	0.7	
CO[C@@H]1[C@@H]2OP(=O)(O)OC[C@H]2O[C@H]1n1c(O)nc2c(N)ncnc21 [D-010, 8-OH-2′-O-Me-cAMP]	6.8	0.5	
O=C(Nc1ncnc2c1ncn2[C@@H]1O[C@@H]2COP(=O)(O)O[C@H]2[C@H]1O)c1ccccc1 [N-002, N^6-Bnz-cAMP]	2.9	0.1	inability to activate Epac2
